Source: ChEMBL document CHEMBL2074240, “VX-710 (biricodar) increases drug retention and enhances chemosensitivity in resistant cells overexpressing P-glycoprotein, multidrug resistance protein, and breast cancer resistance protein” (Clin Cancer Res, 2004)

Target: ATP-dependent translocase ABCB1 (Homo sapiens, UniProt P08183)
Assay: TP_TRANSPORTER: increase in mitoxantrone intracellular accumulation (Mitoxantrone: 3 uM, VX-710: 2.5 uM) in A2780/Dx5b cells
Type: functional, cell-based

ATP-dependent translocase ABCB1, sequence (P08183 whole entry): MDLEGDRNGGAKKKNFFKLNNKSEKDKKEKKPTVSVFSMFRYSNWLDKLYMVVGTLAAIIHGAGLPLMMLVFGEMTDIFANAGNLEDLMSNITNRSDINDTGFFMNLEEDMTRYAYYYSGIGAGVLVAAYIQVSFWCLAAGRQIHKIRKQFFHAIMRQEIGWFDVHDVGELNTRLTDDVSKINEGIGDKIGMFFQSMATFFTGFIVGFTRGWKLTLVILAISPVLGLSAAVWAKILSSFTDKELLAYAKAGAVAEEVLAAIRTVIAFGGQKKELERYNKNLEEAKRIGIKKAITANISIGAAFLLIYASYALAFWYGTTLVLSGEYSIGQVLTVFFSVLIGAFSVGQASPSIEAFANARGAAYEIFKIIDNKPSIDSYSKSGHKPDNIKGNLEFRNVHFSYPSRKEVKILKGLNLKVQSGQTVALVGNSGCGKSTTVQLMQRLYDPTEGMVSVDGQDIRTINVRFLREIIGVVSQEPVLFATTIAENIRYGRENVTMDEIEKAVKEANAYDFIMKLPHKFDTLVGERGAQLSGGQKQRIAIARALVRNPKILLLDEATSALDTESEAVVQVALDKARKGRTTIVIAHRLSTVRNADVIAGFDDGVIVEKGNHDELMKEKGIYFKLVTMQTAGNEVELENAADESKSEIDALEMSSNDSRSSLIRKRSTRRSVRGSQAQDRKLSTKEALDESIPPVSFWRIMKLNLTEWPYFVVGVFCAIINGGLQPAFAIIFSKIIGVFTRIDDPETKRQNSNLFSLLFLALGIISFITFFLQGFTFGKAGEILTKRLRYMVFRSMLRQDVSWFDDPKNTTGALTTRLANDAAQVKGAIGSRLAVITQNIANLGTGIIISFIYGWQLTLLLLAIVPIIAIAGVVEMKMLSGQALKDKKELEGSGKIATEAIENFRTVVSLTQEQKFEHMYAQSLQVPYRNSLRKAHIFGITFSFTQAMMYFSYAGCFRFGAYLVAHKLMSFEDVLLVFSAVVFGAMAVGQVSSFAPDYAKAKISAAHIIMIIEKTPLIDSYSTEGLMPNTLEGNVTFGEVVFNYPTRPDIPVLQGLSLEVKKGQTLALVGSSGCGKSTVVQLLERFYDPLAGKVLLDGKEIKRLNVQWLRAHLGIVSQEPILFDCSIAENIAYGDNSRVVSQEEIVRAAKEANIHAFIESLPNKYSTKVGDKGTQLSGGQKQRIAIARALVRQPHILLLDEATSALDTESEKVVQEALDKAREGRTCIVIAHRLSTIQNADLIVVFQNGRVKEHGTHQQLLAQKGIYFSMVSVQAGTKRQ

**Q.** Which Activity does the source give for COc1cc(C(=O)C(=O)N2CCCC[C@H]2C(=O)OC(CCCc2cccnc2)CCCc2cccnc2)cc(OC)c1OC [BIRICODAR] here?
**A.** The Activity was “inhibitor [+]”.
